Assays:
Assay type in all cases: physicochemical
[1] = Thermogravimetric analysis (TGA); conditions: 25 to 150° C.; listed as A
Experimental: Thermogravimetric analysis (TGA) was carried out on TA Instruments TGA 2050 or 2950. The calibration standards were nickel and Alumel™. Samples were placed on a clean, aluminum sample pan, accurately weighed, and inserted into the TGA furnace. The samples were heated in nitrogen at a rate of 10° C./min, from 35° C. to a final temperature of 250° C.

[2] = Moisture sorption/desorption analysis (VTI SGA-100); conditions: for Weight % chg: Table 3
Experimental: Moisture sorption/desorption data were collected on a VTI SGA-100 Vapor Sorption Analyzer. Sorption and desorption data were collected over a range of 5 to 95% relative humidity (RH) at 10% RH increments under a nitrogen purge. Sodium chloride (NaCl) and polyvinylpyrrolidone (PVP) were used as the calibration standards. Equilibrium criteria used for analysis were less than 0.0100% weight change in 5 minutes, with a maximum equilibration time of 180 minutes if the weight criterion was not met. Data collected were not corrected for the initial moisture content of the samples.

[3] = Solid-state stress (compression, heating, grinding, storage) with XRPD form check; conditions: no solvent; Hydraulic Press 10,000 lbs 1 hour
Experimental: X-ray powder diffraction analyses were carried out on a Shimadzu XRD-6000 X-ray powder diffractometer using Cu Kα radiation having a wavelength of 1.5406 Å. The instrument is equipped with a fine-focus X-ray tube. The tube power was set by setting potential difference at 40 kV, and current 40 mA. The divergence and scattering slits were set at 1° and the receiving slit was set at 0.15 mm. Diffracted radiation was detected by a NaI scintillation detector. A theta-two theta continuous scan at 3°/min (0.4 sec/0.02° step) from 2.5 to 40 °2θ was performed. A silicon standard was analyzed each day to check the instrument alignment. Each sample was analyzed in a quartz sample holder. A variable temperature (VT-XRPD) experiment was performed on one form. The sample was prepared for analysis by pressing it into a variable temperature holder.

[4] = Relative humidity stress experiments, XRPD after storage over saturated salt solutions; conditions: Sodium Chloride, 75.5 % RH @ 20° C., 27 days
Experimental: In relative humidity (RH) stress analysis, open vials containing solid samples were placed inside chambers containing saturated salt solutions along with a small amount of the undissolved salt. The chambers were sealed and allowed to stand at ambient temperature for several days. Samples were analyzed by X-ray powder diffraction (XRPD) immediately after removing the sample from the RH chamber. The RH values these salt solutions were obtained from an ASTM standard.

TGA Results: percent weight change from 25 to 150° C. [1]: <0.1%
total weight loss in the region from 5 to 45% RH ([2]; 5 to 45% RH): about 0.1%
total weight gain from 5 to 95% RH ([2]; 5 to 95% RH, listed as form A): 7.3%
Weight % chg ([2]; desorption, RH 4.93 %, 24.89 deg C, 533.4 min): 7.1472%
Weight % chg ([2]; desorption, RH 15.15 %, 24.89 deg C, 524.9 min): 7.1528%
Weight % chg ([2]; desorption, RH 25.13 %, 24.88 deg C, 515.4 min): 7.1586%
Weight % chg ([2]; desorption, RH 35.12 %, 24.88 deg C, 504.8 min): 7.1671%
Weight % chg ([2]; desorption, RH 45.07 %, 24.87 deg C, 493.8 min): 7.1753%
Weight % chg ([2]; desorption, RH 55.14 %, 24.88 deg C, 480.8 min): 7.1837%
Weight % chg ([2]; desorption, RH 65.19 %, 24.88 deg C, 467.8 min): 7.1925%
Weight % chg ([2]; desorption, RH 75.49 %, 24.88 deg C, 454.8 min): 7.2022%
Weight % chg ([2]; desorption, RH 85.43 %, 24.89 deg C, 443.8 min): 7.2106%
Weight % chg ([2]; sorption, RH 5.14 %, 24.92 deg C, 27.9 min): −0.0698%
Weight % chg ([2]; sorption, RH 14.81 %, 24.92 deg C, 41.6 min): −0.0784%
Weight % chg ([2]; sorption, RH 24.88 %, 24.92 deg C, 51.2 min): −0.0804%
Weight % chg ([2]; sorption, RH 34.89 %, 24.92 deg C, 62.2 min): −0.0733%
Weight % chg ([2]; sorption, RH 44.86 %, 24.91 deg C, 82.2 min): −0.1004%
Weight % chg ([2]; sorption, RH 54.83 %, 24.91 deg C, 93.2 min): −0.0931%
Weight % chg ([2]; sorption, RH 64.82 %, 24.91 deg C, 107.7 min): −0.0775%
Weight % chg ([2]; sorption, RH 74.73 %, 24.91 deg C, 118.3 min): −0.0646%
Weight % chg ([2]; sorption, RH 84.63 %, 24.91 deg C, 304.2 min): 3.8389%
Weight % chg ([2]; sorption, RH 94.67 %, 24.90 deg C, 433.1 min): 7.2104%
Weight % chg ([2]; start, RH 1.46 %, 24.92 deg C, 0.0 min): 0.0000%
weight (water) lost upon equilibration to 5% RH ([2]; equilibration to 5% RH, listed as form A): 0.06%
RH above which moisture sorption begins ([2]; sorption cycle): above 75 % RH
XRPD Pattern [3]: did not induce a form change
XRPD result [4]: converts into form B
Structure (SMILES): Nc1ncn([C@H]2C[C@H](O)[C@@H](CO)O2)c(=O)n1 [Form A]
solid form after moisture sorption/desorption analysis ([2]; after sorption/desorption cycle, listed as form A): retained during the desorption cycle as decitabine polymorph form B
